Measured values published in patent publication US20050208490A1, “Ligand binding pocket peptide fragment of estrogen-related receptor 3 (err3) and uses thereof” (priority 2002, published 2005).
Positions count from the first letter of the chain named. “Also recorded” adds a separate entry of the source. Like-named read-outs stand apart in the source and are kept apart here.

Legend:
[1] = biological target: T1, ERR1 mutant F328 to alanine (Homo sapiens, UniProt P11474, F232A); conditions: Chen S et al., 2001; cited from earlier work
T1 sequence (P11474 1-423 F232A): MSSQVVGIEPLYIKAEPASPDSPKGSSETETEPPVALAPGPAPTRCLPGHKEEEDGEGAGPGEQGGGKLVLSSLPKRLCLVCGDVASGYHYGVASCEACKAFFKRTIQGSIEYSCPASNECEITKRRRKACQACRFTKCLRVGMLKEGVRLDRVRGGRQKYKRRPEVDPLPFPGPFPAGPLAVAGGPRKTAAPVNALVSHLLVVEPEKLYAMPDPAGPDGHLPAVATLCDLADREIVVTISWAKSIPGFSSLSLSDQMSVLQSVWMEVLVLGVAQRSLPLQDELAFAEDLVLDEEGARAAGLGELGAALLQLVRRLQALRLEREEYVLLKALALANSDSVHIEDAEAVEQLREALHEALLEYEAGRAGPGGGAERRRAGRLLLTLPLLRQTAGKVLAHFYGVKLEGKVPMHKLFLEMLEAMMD

ERRα = biological target: T2, ERRα (Homo sapiens, UniProt P11474); conditions: micromolar concentrations; Yang and Chen (1999); cited from earlier work
T2 sequence (P11474 1-423): T1 sequence (P11474 1-423 F232A) with A232F

ERR3 [2] = biological target: T3, ERR3 (Homo sapiens, UniProt P62508); conditions: Coward et al. (2001); cited from earlier work
T3 sequence (P62508 1-458): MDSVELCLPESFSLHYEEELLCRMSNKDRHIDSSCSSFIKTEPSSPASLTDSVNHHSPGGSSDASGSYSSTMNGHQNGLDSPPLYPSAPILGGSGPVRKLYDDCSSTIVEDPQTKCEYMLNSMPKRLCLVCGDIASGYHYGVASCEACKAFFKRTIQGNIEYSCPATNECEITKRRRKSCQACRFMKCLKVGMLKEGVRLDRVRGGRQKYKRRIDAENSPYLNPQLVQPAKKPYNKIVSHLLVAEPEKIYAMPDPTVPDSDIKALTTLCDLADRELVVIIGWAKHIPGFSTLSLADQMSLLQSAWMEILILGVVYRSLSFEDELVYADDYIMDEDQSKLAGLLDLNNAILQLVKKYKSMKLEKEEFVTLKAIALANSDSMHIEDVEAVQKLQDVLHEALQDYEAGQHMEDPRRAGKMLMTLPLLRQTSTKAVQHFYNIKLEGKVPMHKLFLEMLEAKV

[3] = system: mutant ERR3 LBDs (A272F, A272L, F435L, L345I, L345I-F435L, L345I-F435L-F450L) / GST-SRC-1 RID complex; test: In vitro protein-protein interaction assay, mutant ERR3 LBDs with SRC-1 RID (native gel); assay type: biochemical, human; conditions: 10^−4M 4-OHT
Experimental: (§1) The His-tagged wt or mutant ERR3 LBDs, the GST-tagged SRC-1 RID, and GST were expressed in E. coli BL21 (DE3) and partially purified by affinity chromatography using TALON (Clontech) or Glutathione Sepharose 4B (Pharmacia), respectively. […] After purification the proteins were dialyzed in assay buffer (20 mM Tris.HCl pH 8.0, 200 mM NaCl), and concentrated. For the protein-protein interaction assays […] (about 70 pmol) of His-tagged wt or mutant ERR3 LBD were mixed with […] (about 100 pmol) of GST-tagged SRC-1 RID or […] of GST and incubated on ice for 10 mins. […] Protein complexes were resolved on native polyacrylamide gradient gels (8%-25%) using the Phast System (Pharmacia).
(§2) In vitro interaction assays with the RID (amino acids 617-764) of the coactivator SRC-1 has first been performed. Hexahistidine (His)-tagged ERR3, LBD and GST-tagged SRC-1 RID were partially purified by affinity chromatography, the proteins were mixed, and complex formation was monitored on native polyacrylamide gels. […] Complexes were separated on native polyacrylamide gradient gels.
In addition, the ligand-binding pocket of ERR3 has been enlarged by either mutating F435 to leucine or by introducing a triple point mutation (L345I-F435L-F450L) which creates an “ERα-like” ligand-binding pocket.

[4] = system: Gal4-ERR3 mutants (A272F, A272L, F435L, L345I-F435L-F450L); test: Transient transfection luciferase reporter assay, mutant Gal4-ERR3 fusion proteins in COS-1 cells; assay type: cell-based, human; conditions: 10^−6M 4-OHT
Experimental: (§3) COS-1 and BHK cells were cultured in DMEM supplemented with 5% FCS, penicillin, streptomycin, and glutamine. Neuro2A cells were cultured in EMEM supplemented with 10% FCS, penicillin, streptomycin, glutamine, and non-essential amino acids. Transient transfection assays were carried out in 24-well plates (0.5×10^5 cells per well for COS-1 and Neuro2A cells, 0.25×10^5 cells per well for BHK cells) using the standard calcium phosphate coprecipitation technique as described in Greiner et al. (Greiner et al., 1996). Cells were transfected with 250 ng of Gal4(5×)-TATA-LUC, Gal4(3×)-TK-LUC, or ERE(2×)-TK-LUC reporter plasmid and 50 ng per well of pCMX-Gal4-ERR3 or pCMX-ERR3 expression plasmid. The empty plasmids pCMX-Gal4 and pCMX served as control. […] Luciferase activity was assayed as described in Greiner et al. (1996). All experiments were repeated at least three times.
(§4) Finally, it has been asked whether ERR3 could activate transcription independently of a putative endogenous ligand. The wt and mutant ERR3 LBDs were fused to the DNA-binding domain of Gal4, and Gal4-ERR3 fusion proteins were tested for their potential to activate transcription in transient transfection assays using synthetic reporters in eukaryotic cell lines. […]

ERR3 [5] = biological target: T3, ERR3; conditions: Coward et al. (2001); cited from earlier work; remark: listed apart in the source
Gal4-ERR3 = biological target: T4, Gal4-ERR3 (Homo sapiens, UniProt P62508); test: Transient transfection luciferase reporter assay, Gal4-ERR3 (wt LBD) in COS-1 cells; assay type: cell-based
T4 construct: cDNA fragments encoding wt or mutant ERR3 LBDs (residues 229 to 458, human and murine receptor are identical) were generated by PCR; expressed in transfected cells; host or cells: COS-1 cells (also Neuro2A and BHK)
T4 sequence (P62508 229-458): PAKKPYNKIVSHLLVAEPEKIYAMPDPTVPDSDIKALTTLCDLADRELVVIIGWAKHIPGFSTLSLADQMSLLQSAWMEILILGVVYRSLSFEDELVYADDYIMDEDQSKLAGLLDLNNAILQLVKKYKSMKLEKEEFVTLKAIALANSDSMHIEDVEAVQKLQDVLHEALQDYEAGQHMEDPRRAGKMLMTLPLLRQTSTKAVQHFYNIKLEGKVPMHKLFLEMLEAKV
Experimental: as §3, §4

ERR1, ERR2 and ERR3 = conditions: Coward et al., 2001 / reported, cited from earlier work
full length ERR3 = full length ERR3 (Homo sapiens, UniProt P62508); test: Transient transfection with ERE(2×)-TK-LUC reporter, full length ERR3; assay type: cell-based; conditions: in the presence of 4-OHT
Experimental: as §3

[6] = biological target: T5, His-tagged ERR3 LBD / GST-tagged SRC-1 RID complex (Homo sapiens, UniProt P62508); test: In vitro protein-protein interaction assay, wt ERR3 LBD with SRC-1 RID (native gel); assay type: biochemical; conditions: 10^−4M ligand
T5 construct: cDNA fragments encoding wt or mutant ERR3 LBDs (residues 229 to 458, human and murine receptor are identical) were generated by PCR; made in house; host or cells: E. coli BL21 (DE3)
T5 sequence (P62508 229-458): T4 sequence (P62508 229-458)
Experimental: as §1, §2

Molecule	activation of ERR1 F328A mutant [1]	effect on ERRα basal activity (ERRα)	affinity of binding to ERR3 (ERR3 [2])	disruption of the mutant ERR3 LBD/GST-SRC-1 RID complex ([3]; mutant F435L)	disruption of the mutant ERR3 LBD/GST-SRC-1 RID complex ([3]; mutants A272F or A272L)	antagonist action on mutant ERR3 LBD in vitro ([3]; mutants F435L, L345I-F435L, L345I-F435L-F450L)	transcriptional activity of Gal4-ERR3 mutants ([4]; Gal4-ERR3(A272F) or Gal4-ERR3(A272L))	transcriptional activity of Gal4-ERR3 mutants ([4]; Gal4-ERR3(F435L) and Gal4-ERR3(L345I-F435L-F450L))	effect on ERR3 transcriptional activity (ERR3 [5])	repression of Gal4-ERR3 constitutive activity below basal levels of the TK promoter (Gal4-ERR3; Gal4(3×)-TK-LUC reporter)	transcriptional activity of Gal4-ERR3 (Gal4-ERR3; Gal4(5×)-TATA-LUC reporter, 10^−6M 4-OHT)	binding to ERR isotypes (ERR1, ERR2 and ERR3; listed as 40HT)	binding to ERR isotypes (ERR1, ERR2 and ERR3)	active repression of transcription of the TK promoter by full length ERR3 (full length ERR3)	conformational change of the ERR3 LBD (migration on native gels) [6]	disruption of the ERR3 LBD/GST-SRC-1 RID complex ([6]; native polyacrylamide gradient gel)
CC1(C)C(C(Cl)Cl)C2(Cl)C(Cl)C(Cl)C1(Cl)C2(Cl)Cl (centres unmarked) [toxaphene]	can be activated by toxaphene	decrease ERRα basal activity														
4-hydroxytamoxifen [4-OHT]			submicromolar	still disrupted	no effect is observed	still acts as an antagonist	but not of Gal4-ERR3(A272F) or Gal4-ERR3(A272L)	antagonizes the transcriptional activity	repressed transactivation; also recorded: selectively block the transcriptional activity of ERR3	neither 4-OHT nor DES repress the constitutive activity of Gal4-ERR3 below basal levels	blocked efficiently	binds both ERR2 and ERR3	does not bind ERR1; also recorded: binds to ERR2 and ERR3 but not to ERR1	does not actively repress transcription of the TK promoter	significant conformational change	specifically disrupted
ClC1=C(Cl)C2(Cl)C3C(Cl)C(Cl)CC3C1(Cl)C2(Cl)Cl (centres unmarked) [chlordane]		decrease ERRα basal activity														
